This note sets out measurements from BindingDB's records for doi:10.1016/j.bmcl.2004.10.005 (Bristol Myers Squibb, 2004).

For the assay, the target named is T1, Neuropeptide Y receptor type 1 (Homo sapiens, UniProt P25929).
T1 sequence (P25929 whole entry): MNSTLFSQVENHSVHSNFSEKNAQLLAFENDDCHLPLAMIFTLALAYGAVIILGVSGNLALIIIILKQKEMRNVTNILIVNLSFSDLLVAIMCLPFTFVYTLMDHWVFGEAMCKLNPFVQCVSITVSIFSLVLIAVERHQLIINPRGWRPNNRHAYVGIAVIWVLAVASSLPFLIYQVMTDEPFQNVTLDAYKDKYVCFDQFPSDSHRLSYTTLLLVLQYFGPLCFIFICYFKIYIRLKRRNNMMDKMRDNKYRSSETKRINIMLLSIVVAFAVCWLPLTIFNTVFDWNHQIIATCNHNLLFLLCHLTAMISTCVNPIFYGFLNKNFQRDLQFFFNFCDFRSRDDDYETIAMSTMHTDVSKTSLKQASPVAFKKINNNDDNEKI
Briefly: Inhibition of binding of [125I]PYY to membranes of SK-N-MC cells expressing the human Y1 receptors.
One may read the IC50 as the concentration that gives 50% inhibition. In turn, `COC(=O)C1=C(C)N=C(C)C(C(=O)OC)C1c1cccc(NC(=O)NCCNC2CCN(c3ccccc3SC)CC2)c1` (stereo unspecified) [2,6-Dimethyl-4-[3-(3-{2-[1-(2-methylsulfanyl-phenyl)-piperidin-4-ylamino]-ethyl}-ureido)-phenyl]-1,4-dihydro-pyridine-3,5-dicarboxylic acid dimethyl ester] displayed a 50% inhibitory concentration (IC50) of 5 nM.
Then `COC(=O)C1=C(C)N=C(C)C(C(=O)OC)C1c1cccc(NC(=O)NCCNC2CCN(c3ccccc3C#N)CC2)c1` (stereo unspecified) [4-[3-(3-{2-[1-(2-Cyano-phenyl)-piperidin-4-ylamino]-ethyl}-ureido)-phenyl]-2,6-dimethyl-1,4-dihydro-pyridine-3,5-dicarboxylic acid dimethyl ester], with 3 nM; and `COC(=O)C1=C(C)N=C(C)C(C(=O)OC)C1c1cccc(NC(=NC#N)NCCNC2CCN(c3cccc(Cl)c3)CC2)c1` (stereo unspecified) [N-arylpiperazine derivative], with 8 nM; and `COC(=O)C1=C(C)NC(C)=C(C(=O)OC)C1c1cccc(NC(=O)NCCNC2CCN(c3ccccc3[N+](=O)[O-])CC2)c1` [2,6-Dimethyl-4-[3-(3-{2-[1-(2-nitro-phenyl)-piperidin-4-ylamino]-ethyl}-ureido)-phenyl]-1,4-dihydro-pyridine-3,5-dicarboxylic acid dimethyl ester], with 2 nM.
Next, `COC(=O)C1=C(C)N=C(C)C(C(=O)OC)C1c1cccc(NC(=NC#N)NCCNC2CCN(c3ccccc3C#N)CC2)c1` (stereo unspecified) [N-arylpiperazine derivative]: 3 nM; `COC(=O)C1=C(C)N=C(C)C(C(=O)OC)C1c1cccc(NC(=O)NCCNC2CCN(c3ccccc3)CC2)c1` (stereo unspecified) [2,6-Dimethyl-4-(3-{3-[2-(1-phenyl-piperidin-4-ylamino)-ethyl]-ureido}-phenyl)-1,4-dihydro-pyridine-3,5-dicarboxylic acid dimethyl ester]: 2 nM; `COC(=O)C1=C(C)NC(C)=C(C(=O)OC)C1c1cccc(NC(=NC#N)NCCNC2CCN(c3ccccc3[N+](=O)[O-])CC2)c1` [N-arylpiperazine derivative]: 4 nM.
Next, `COC(=O)C1=C(C)N=C(C)C(C(=O)OC)C1c1cccc(NC(=NC#N)NCCNC2CCN(c3ccccc3SC)CC2)c1` (stereo unspecified) [N-arylpiperazine derivative]: 3 nM.
With `COC(=O)C1=C(C)N=C(C)C(C(=O)OC)C1c1cccc(NC(=O)NCCNC2CCN(c3cccc(Cl)c3)CC2)c1` (stereo unspecified) [4-[3-(3-{2-[1-(3-Chloro-phenyl)-piperidin-4-ylamino]-ethyl}-ureido)-phenyl]-2,6-dimethyl-1,4-dihydro-pyridine-3,5-dicarboxylic acid dimethyl ester], the IC50 is 8 nM.
Next, `COC(=O)C1=C(C)N=C(C)C(C(=O)OC)C1c1cccc(NC(=O)NCCNC2CCN(c3ccccc3C)CC2)c1` (stereo unspecified) [2,6-Dimethyl-4-(3-{3-[2-(1-o-tolyl-piperidin-4-ylamino)-ethyl]-ureido}-phenyl)-1,4-dihydro-pyridine-3,5-dicarboxylic acid dimethyl ester]: 4 nM; `COC(=O)C1=C(C)N=C(C)C(C(=O)OC)C1c1cccc(NC(=NC#N)NCCNC2CCN(c3ccccc3C)CC2)c1` (stereo unspecified) [N-arylpiperazine derivative]: 4 nM.
